Experimental data as given in the supplement of paper PMC9663587.

What was measured:
Test in all cases: area over the GR curve, 72 h; higher = more effect;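 also: Dye Drop or Deep Dye Drop imaging of viable cells in 384-well plates (Hoechst nuclei, LIVE/DEAD dye), nine half-log doses, GR normalized to DMSO controls and time-zero plates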
[1] = system: UACC812
[2] = system: HCC1187
[3] = system: MDAMB436
[4] = system: SUM190PT
[5] = system: UACC893
[6] = system: HCC1937
[7] = system: ZR751
[8] = system: HCC1143
[9] = system: CAL51
[10] = system: MDAMB330
[11] = system: BT20
[12] = system: SUM229PE
[13] = system: ZR7530
[14] = system: CAL851

| Structure (SMILES) | area over the GR curve [1] [GR] | area over the GR curve [2] [GR] | area over the GR curve [3] [GR] | area over the GR curve [4] [GR] | area over the GR curve [5] [GR] | area over the GR curve [6] [GR] | area over the GR curve [7] [GR] | area over the GR curve [8] [GR] | area over the GR curve [9] [GR] | area over the GR curve [10] [GR] | area over the GR curve [11] [GR] | area over the GR curve [12] [GR] | area over the GR curve [13] [GR] | area over the GR curve [14] [GR] |
| --- | --- | --- | --- | --- | --- | --- | --- | --- | --- | --- | --- | --- | --- | --- |
| CCc1cncnc1N1CCN(Cc2nc3ccc(C(F)(F)F)cc3[nH]2)CC1 (max 10 µM) | 0.275 | 0.014 | 0.0903 | 0.0049 | 0.0713 | 0.039 | -0.0587 | 0.0639 | 0.0491 | 0.0392 | -0.0022 | 0.0479 | 0.0942 | -0.0315 |
| CC(C)Nc1cc(-c2c[nH]c(C(=O)N[C@H](CO)c3cccc(Cl)c3)c2)c(Cl)cn1 [BVD523] (max 10 µM) | 0.305 | -0.297 | 0.0948 | 0.218 | 0.267 | 0.119 | 0.122 | 0.27 | 0.0561 | 0.133 | 0.132 | 0.279 | 0.08 | 0.2 |
| CC(=O)Nc1cccc(-n2c(=O)n(C3CC3)c(=O)c3c(Nc4ccc(I)cc4F)n(C)c(=O)c(C)c32)c1 (max 1 µM) | 0.686 | 0.198 | 0.182 | 0.0746 | 0.434 | 0.138 | 0.328 | 0.538 | 0.0662 | 0.218 | 0.176 | 0.472 | 0.219 | 0.41 |
| CC(=O)c1c(C)c2cnc(Nc3ccc(N4CCNCC4)cn3)nc2n(C2CCCC2)c1=O (max 3.162 µM) | 0.609 | 0.268 | -0.0424 | 0.319 | 0.436 | -0.0629 | 0.12 | 0.255 | 0.25 | 0.47 | 0.39 | 0.223 | 0.284 | -0.0843 |
| COc1cccc2c1C(=O)c1c(O)c3c(c(O)c1C2=O)C[C@@](O)(C(=O)CO)C[C@@H]3O[C@H]1C[C@H](N)[C@H](O)[C@H](C)O1 [Doxorubicin] (max 3.162 µM) | 1.18 | 1.08 | 0.706 | 0.403 | 0.611 | 0.579 | 0.497 | 0.718 | 0.795 | 0.716 | 0.828 | 0.453 | 0.552 | 0.848 |
| COc1cc([C@@H]2c3cc4c(cc3[C@@H](O[C@@H]3O[C@@H]5CO[C@@H](C)O[C@H]5[C@H](O)[C@H]3O)[C@H]3COC(=O)[C@H]23)OCO4)cc(OC)c1O [Etoposide] (max 10 µM) | – | – | 0.434 | – | – | 0.393 | – | 0.384 | 0.467 | – | 0.459 | – | – | 0.406 |
| CCC(=O)Nc1ccc(C(=O)Nc2ccc(Nc3ncc4c(n3)N(C)c3ccc(C)cc3C(=O)N4C)cc2)cc1 [FMF-03-145-1] | 1.04 | 1.51 | 0.465 | 0.94 | 0.869 | 0.464 | 0.391 | 0.389 | 0.394 | 0.814 | 1.2 | 1.06 | 0.918 | 0.626 |
| C=CCn1c(=O)c2cnc(Nc3ccc(N4CCN(C)CC4)cc3)nc2n1-c1cccc(C(C)(C)O)n1 [AZD1775] (max 10 µM) | 0.34 | 0.822 | 0.497 | 0.615 | 0.488 | 0.707 | 0.143 | 0.355 | 0.461 | 0.655 | 0.198 | 0.756 | 0.322 | 0.491 |
| CC(=O)O[C@H]1C(=O)[C@@]2(C)[C@H]([C@H](OC(=O)c3ccccc3)[C@]3(O)C[C@H](OC(=O)[C@H](O)[C@@H](NC(=O)c4ccccc4)c4ccccc4)C(C)=C1C3(C)C)[C@]1(OC(C)=O)CO[C@@H]1C[C@@H]2O [Paclitaxel] (max 1 µM) | 1.44 | 1.34 | 0.708 | 0.872 | 0.905 | 0.658 | 0.511 | 0.839 | 0.669 | 0.846 | 0.985 | 0.91 | 0.868 | 0.793 |
| CCCCOc1c(C(=O)c2c(F)cc(C)cc2F)c[nH]c2nncc1-2 (max 10 µM) | 0.886 | 0.203 | 0.355 | 0.715 | 0.519 | 0.917 | 0.209 | 0.837 | 0.226 | 0.372 | 0.84 | 0.662 | 0.481 | 0.672 |
| C[C@@H]1COCCN1c1cc(C2([S@](C)(=N)=O)CC2)nc(-c2cc[nH]c3nccc2-3)n1 [AZD6738] (max 10 µM) | -0.0578 | 0.249 | 0.0381 | 0.124 | 0.0149 | -0.0947 | 0.03 | 0.0282 | 0.103 | 0.0364 | -0.0437 | 0.0968 | -0.0333 | 0.071 |
| CC[C@@]1(O)C(=O)OCc2c1cc1n(c2=O)Cc2cc3c(CN(C)C)c(O)ccc3nc2-1 [Topotecan] (max 10 µM) | – | – | 0.877 | – | – | 0.837 | – | 0.904 | 0.856 | – | 1.03 | – | – | 0.843 |
| CCN1CCN(Cc2ccc(Nc3ncc(F)c(-c4cc(F)c5nc(C)n(C(C)C)c5c4)n3)nc2)CC1 (max 10 µM) | 1.04 | 0.33 | 0.187 | 0.66 | 0.657 | 0.102 | 0.429 | 0.541 | 0.578 | 0.722 | 0.569 | 0.383 | 0.546 | 0.228 |
| Cc1cc(Nc2ncc(Cl)c(Nc3ccccc3S(=O)(=O)C(C)C)n2)c(OC(C)C)cc1C1CCNCC1 [Ceritinib/LDK378] (max 10 µM) | 0.085 | 0.168 | 0.415 | 0.242 | -0.0026 | 0.133 | 0.16 | 0.285 | 0.417 | 0.187 | 0.255 | 0.0779 | 0.0423 | 0.372 |
| N.N.[Cl][Pt][Cl] [Cisplatin] (max 10 µM) | – | – | 0.36 | – | – | 0.327 | – | 0.303 | 0.214 | – | 0.334 | – | – | 0.221 |
